For three compounds, AC50 and EC50 results are on record in ChEMBL document CHEMBL1201862, “PubChem BioAssay data set” (2004).

Activity calls are given as the source filed them.

The term AC50 denotes the midpoint of the concentration-response curve, whichever way the signal moves. In general, EC50 refers to the concentration at which the effect is half-maximal.

One data set concerns HeLa. The data set is described as follows: HeLa cell cytotoxicity, dose response, cytotoxicity control, 24 h, cherry-picked samples (AID 504726).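 Further: potency for cytotoxicity as loss of luminescence signal.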 The format is functional, cell-based. Particulars: Homo sapiens.
Data set [1] addresses T1, RNA-binding protein pos-1 (Caenorhabditis elegans, UniProt G5EF15).
T1 sequence (G5EF15 whole entry): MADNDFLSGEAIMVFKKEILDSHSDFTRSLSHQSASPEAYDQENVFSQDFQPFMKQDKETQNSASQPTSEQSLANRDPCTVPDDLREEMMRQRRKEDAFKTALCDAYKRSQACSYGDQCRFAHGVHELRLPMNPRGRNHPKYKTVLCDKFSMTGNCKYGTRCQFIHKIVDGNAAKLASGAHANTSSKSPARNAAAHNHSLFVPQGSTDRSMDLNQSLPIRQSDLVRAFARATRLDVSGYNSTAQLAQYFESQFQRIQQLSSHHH
The experiment in a line: inhibitors of POS-1/mex-3 RNA binding, dose response, biochemical, fluorescence polarization (AID 1964).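 Further: purified POS-1 fused to maltose binding protein made in E. coli; potency of compounds blocking POS-1 binding to fluorescent RNA.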 Background: In fluorescence polarisation assays a small probe gives low polarisation when free and higher when bound to something large.

Data set [2] has as its system Escherichia coli. The experiment in a line: microbe, parasite or virus in culture.
For data set [3], the target named is T2, Zinc finger protein mex-5 (Caenorhabditis elegans, UniProt Q9XUB2).
T2 sequence (Q9XUB2 whole entry): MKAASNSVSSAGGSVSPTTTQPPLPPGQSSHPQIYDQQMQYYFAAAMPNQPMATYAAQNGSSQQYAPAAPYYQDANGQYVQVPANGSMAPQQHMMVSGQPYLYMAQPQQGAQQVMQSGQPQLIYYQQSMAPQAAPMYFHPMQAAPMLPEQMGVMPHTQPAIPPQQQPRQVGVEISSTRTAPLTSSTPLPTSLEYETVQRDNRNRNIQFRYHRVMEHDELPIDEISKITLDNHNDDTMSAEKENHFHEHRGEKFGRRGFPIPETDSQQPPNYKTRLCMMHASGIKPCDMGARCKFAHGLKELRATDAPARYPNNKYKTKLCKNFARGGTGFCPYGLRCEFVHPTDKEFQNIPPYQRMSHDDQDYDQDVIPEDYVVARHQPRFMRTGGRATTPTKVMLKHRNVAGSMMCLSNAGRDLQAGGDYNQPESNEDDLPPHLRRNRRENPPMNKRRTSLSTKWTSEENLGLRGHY
The experiment in a line: MEX-5/TCR-2 RNA interaction inhibitors, dose response, biochemical, C. elegans, fluorescence polarization (AID 1960).

Data set [4] has as its system Escherichia coli. The data set is described as follows: microbe, parasite or virus in culture. This is another data set of the same source.
Another data set addresses T3, Cytochrome P450 1A2 (Homo sapiens, UniProt P05177).
T3 sequence (P05177 whole entry): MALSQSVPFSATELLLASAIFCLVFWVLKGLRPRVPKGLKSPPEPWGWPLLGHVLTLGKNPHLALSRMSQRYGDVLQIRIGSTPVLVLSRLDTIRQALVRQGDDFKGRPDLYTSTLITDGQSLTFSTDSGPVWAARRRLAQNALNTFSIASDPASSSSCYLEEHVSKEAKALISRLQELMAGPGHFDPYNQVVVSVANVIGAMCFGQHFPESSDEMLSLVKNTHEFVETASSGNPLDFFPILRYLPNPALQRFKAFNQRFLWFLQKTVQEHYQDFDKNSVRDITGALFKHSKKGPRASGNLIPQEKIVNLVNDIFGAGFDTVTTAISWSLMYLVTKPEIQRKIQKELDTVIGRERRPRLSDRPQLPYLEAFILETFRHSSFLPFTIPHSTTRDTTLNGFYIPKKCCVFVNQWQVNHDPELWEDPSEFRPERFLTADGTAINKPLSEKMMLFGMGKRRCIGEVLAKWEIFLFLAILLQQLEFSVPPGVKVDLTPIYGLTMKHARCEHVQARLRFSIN

The target in the next data set is Cytochrome P450 2C19 (Homo sapiens, UniProt P33261). The experiment in a line: Cytochrome panel assay with activity outcomes. Panel member name: p450-cyp2c19 Compounds with AC50 equal or less than 10 uM are considered active. The format is functional.
Chain of Cytochrome P450 2C19 (P33261 whole entry): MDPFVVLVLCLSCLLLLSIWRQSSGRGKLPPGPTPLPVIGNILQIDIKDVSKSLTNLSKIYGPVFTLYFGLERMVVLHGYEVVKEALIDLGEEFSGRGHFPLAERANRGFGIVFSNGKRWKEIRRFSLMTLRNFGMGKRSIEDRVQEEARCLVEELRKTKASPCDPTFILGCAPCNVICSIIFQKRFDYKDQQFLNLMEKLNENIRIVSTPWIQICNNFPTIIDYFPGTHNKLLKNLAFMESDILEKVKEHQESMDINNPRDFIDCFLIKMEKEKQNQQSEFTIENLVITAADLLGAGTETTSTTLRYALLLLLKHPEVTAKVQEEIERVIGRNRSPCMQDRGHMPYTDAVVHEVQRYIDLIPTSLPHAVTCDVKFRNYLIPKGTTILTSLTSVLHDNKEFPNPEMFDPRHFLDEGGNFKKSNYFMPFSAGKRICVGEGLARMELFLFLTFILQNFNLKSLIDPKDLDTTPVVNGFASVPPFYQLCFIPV
For the next data set, the target named is Cytochrome P450 3A4 (Homo sapiens, UniProt P08684).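 Further: CYP3A4 tested as one member of a cytochrome P450 panel screen.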
Chain of Cytochrome P450 3A4 (P08684 whole entry): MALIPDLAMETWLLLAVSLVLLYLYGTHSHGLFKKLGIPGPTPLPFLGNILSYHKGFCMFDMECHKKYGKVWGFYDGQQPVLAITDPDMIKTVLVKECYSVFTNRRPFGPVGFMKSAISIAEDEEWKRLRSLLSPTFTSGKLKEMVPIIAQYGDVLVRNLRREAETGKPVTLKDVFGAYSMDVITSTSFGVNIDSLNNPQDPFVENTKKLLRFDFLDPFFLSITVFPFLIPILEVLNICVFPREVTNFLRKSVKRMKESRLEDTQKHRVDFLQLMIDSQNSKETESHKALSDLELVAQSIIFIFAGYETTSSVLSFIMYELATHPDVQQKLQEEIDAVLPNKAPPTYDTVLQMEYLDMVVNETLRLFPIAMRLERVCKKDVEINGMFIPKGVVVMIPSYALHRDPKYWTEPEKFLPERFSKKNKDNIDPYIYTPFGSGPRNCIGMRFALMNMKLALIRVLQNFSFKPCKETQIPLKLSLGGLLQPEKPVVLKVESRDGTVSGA
The target in data set [5] is Potassium voltage-gated channel subfamily KQT member 2 (Rattus norvegicus, UniProt O88943). The data set is described as follows: KCNQ2 channel activators, analog series, SAR follow-up, automated patch clamp, KCNQ2-CHO cells (AID 493113). Format: functional.
Chain of Potassium voltage-gated channel subfamily KQT member 2 (O88943 whole entry): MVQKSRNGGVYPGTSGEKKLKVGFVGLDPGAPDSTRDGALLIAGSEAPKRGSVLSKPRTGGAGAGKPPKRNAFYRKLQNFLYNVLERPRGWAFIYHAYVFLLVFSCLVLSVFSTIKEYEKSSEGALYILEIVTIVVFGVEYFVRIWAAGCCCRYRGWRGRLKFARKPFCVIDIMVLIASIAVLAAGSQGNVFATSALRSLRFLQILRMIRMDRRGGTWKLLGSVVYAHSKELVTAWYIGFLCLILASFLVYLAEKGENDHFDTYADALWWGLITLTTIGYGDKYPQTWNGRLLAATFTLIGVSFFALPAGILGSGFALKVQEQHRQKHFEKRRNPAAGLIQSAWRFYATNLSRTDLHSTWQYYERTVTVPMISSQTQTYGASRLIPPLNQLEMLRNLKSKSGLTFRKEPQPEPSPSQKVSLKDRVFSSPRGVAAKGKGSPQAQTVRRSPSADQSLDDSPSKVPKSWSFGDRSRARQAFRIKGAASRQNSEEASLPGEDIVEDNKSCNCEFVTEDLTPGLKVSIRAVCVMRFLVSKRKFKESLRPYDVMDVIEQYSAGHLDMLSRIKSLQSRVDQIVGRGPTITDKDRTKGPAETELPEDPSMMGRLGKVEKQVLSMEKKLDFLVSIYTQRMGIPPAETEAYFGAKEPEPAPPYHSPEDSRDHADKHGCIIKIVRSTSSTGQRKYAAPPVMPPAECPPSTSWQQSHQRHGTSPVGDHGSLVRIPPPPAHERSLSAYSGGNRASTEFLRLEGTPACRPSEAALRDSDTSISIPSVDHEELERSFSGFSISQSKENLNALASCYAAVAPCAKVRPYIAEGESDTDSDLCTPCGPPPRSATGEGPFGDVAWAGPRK

As for `CN(C)C1C(=O)C(C(N)=O)=C(O)C2(O)C(O)=C3C(=O)c4c(O)cccc4C(C)(O)C3C(O)C12` (centres undefined), the AC50 is 54.2 µM (active) in the data set on HeLa, < 0.3 µM (active) in the data set on Escherichia coli [2] and 14.9 µM (active) in the data set on Escherichia coli [4]. Moreover, the EC50 in data set [1] was 65.8 µM (active); in data set [3] it was 29.9 µM (inconclusive).
For `O=C(O)CNC(=O)c1ccc([As](=O)(O)O)cc1`, the half-maximal activity concentration (AC50) entry at Cytochrome P450 1A2, at Cytochrome P450 2C19 and on Cytochrome P450 3A4 was “inactive” throughout.
Turning to `CCc1ccc(NC(=O)C2CC3CCC2C3)cc1` (centres undefined), the EC50 in data set [5] is 0.92 µM (active).
